According to publication PMC2630410 (Molecular and biochemical parasitology, 2008):
Where two headings read alike, the source gives them in different places.

Tests used:
[1] = tested on: Δlmant3 parasites; experiment: Background adenine uptake by Δlmant3 parasites; assay type: cell-based, Leishmania major; details: 50 μM adenine
[2] = tested on: TbNT12.2; experiment: Adenine uptake by TbNT12.2 expressed in Δlmant3 promastigotes; assay type: cell-based, Trypanosoma brucei; details: 50 μM adenine, n=3
[3] = target: T1, TbNT12.1 (Trypanosoma brucei brucei, UniProt Q57TQ7); experiment: Uptake of adenine and pentamidine by TbNT12.1 expressed in Xenopus oocytes; assay type: cell-based; details: for Transport by TbNT12.1 (in words): versus water-injected oocytes
T1 sequence (Q57TQ7 1-462): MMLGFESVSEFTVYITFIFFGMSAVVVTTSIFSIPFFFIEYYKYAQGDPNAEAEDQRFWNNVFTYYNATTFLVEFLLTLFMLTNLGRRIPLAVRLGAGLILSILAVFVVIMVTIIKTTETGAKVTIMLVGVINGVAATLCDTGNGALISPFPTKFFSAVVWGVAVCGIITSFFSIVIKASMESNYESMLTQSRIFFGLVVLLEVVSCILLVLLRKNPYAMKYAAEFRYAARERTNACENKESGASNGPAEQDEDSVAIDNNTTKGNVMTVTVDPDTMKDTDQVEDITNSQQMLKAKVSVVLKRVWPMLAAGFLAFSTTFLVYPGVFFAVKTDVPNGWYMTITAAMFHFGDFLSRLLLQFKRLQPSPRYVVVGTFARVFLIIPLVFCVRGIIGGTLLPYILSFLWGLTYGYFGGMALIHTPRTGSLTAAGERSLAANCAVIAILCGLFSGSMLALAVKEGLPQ

[4] = target: T1, TbNT12.1; experiment: Adenine uptake by TbNT12.1 expressed in Δlmant3 promastigotes; assay type: cell-based; details: 50 μM adenine, n=3
[5] = target: T2, TbNT11.1 (Trypanosoma brucei brucei, UniProt Q38CR7); assay type: cell-based; details: for Inhibition of [3H]hypoxanthine uptake by TbNT11.1 (in words): 1 μM [3H]hypoxanthine, graded concentrations of inhibitor; for Inhibition of hypoxanthine uptake by pyrimidine nucleobases: concentrations up to 1 mM; for Inhibition of hypoxanthine uptake by pyrimidine nucleobases / Inhibition of [3H]hypoxanthine uptake by nucleosides: data not shown; for Inhibition of [3H]hypoxanthine uptake by nucleosides: 1 mM nucleoside, Δlmant3[pTbNT11.1] parasites
[6] = target: T2, TbNT11.1; assay type: cell-based; details: for Inhibition of [14C]pentamidine uptake by unlabeled nucleobase: 1 mM unlabeled substrate, TbNT11-expressing oocytes
[7] = tested on: TbNT12.2; experiment: Uptake of adenine and pentamidine by TbNT12.2 expressed in Xenopus oocytes; assay type: cell-based, Trypanosoma brucei; details: for Transport by TbNT12.2 (in words): Xenopus oocytes, versus water-injected oocytes
[8] = target: T2, TbNT11.1; assay type: cell-based; details: for TbNT11.1-mediated uptake of radiolabeled substrate: 1 μM [3H]substrate, Δlmant3[pTbNT11] line
[9] = tested on: PPT1; experiment: Inhibition of [14C]pentamidine uptake by PF trypanosomes; assay type: cell-based, Trypanosoma brucei; details: 1 mM nucleobase, 25 μM [14C]pentamidine; data not shown
[10] = target: T2, TbNT11.1; experiment: [3H]adenosine uptake by Δldnt1/Δldnt2[pTbNT11.1] line; assay type: cell-based; details: 0.5 μM or 100 μM [3H]adenosine; data not shown
[11] = target: T2, TbNT11.1; assay type: cell-based; details: oocytes expressing TbNT11.1; data not shown
[12] = target: T2, TbNT11.1; experiment: Inhibition of [3H]adenine uptake by TbNT11.1 in Δlmant3[pTbNT11.1] parasites; assay type: cell-based
[13] = target: TbNT8.1 (Trypanosoma brucei brucei, UniProt Q386F1); assay type: cell-based; details: 12.5 μM [3H]hypoxanthine
[14] = tested on: O=c1[nH]cnc2nc[nH]c12; experiment: cells, lysate or membranes; details: other: substrate saturation, 1 min, Δlmant3[pTbNT11.1], n=3
[15] = substrate: N=C(N)c1ccc(OCCCCCOc2ccc(C(=N)N)cc2)cc1; experiment: Uptake of adenine and pentamidine by TbNT12.1 expressed in Xenopus oocytes; assay type: cell-based, Trypanosoma brucei; details: other: Xenopus oocytes, n=3; 16.0 °C
[16] = transport rates linear from 0–1 mM adenine

## Nc1ncnc2[nH]cnc12 [adenine]
[1]
  Background uptake of adenine in Δlmant3 parasites: 41.8 ± 1.4 pmol/min/10^7 parasites
[2]
  Uptake of adenine, TbNT12.2 in Δlmant3 promastigotes: 86.5 ± 1.1 pmol/min/10^7 parasites
[3]; Xenopus oocytes
  Transport by TbNT12.1 (in words): transport
[3]; [16]
  Affinity of TbNT12.1 for substrate: low
[4]
  Uptake of adenine, TbNT12.1 in Δlmant3 promastigotes: 103 ± 2 pmol/min/10^7 parasites
[5]
  Ki: 8 µM
[6]; 50 μM [14C]pentamidine
  Inhibition of [14C]pentamidine uptake by unlabeled nucleobase: very poor inhibitor
[7]
  Transport by TbNT12.2 (in words): transport
[7]; [16]
  Affinity of TbNT12.2 for substrate: low
[8]
  TbNT11.1-mediated uptake of radiolabeled substrate: mediated uptake
[9]
  Inhibition of [14C]pentamidine uptake by PFs: did not inhibit

## Nc1ncnc2c1ncn2[C@@H]1O[C@H](CO)[C@@H](O)[C@H]1O [adenosine]
[5]
  Inhibition of [3H]hypoxanthine uptake by TbNT11.1 (in words): an inhibitor
[10]
  Uptake of [3H]adenosine: did not take up

## Oc1ncnc2[nH]ncc12 [allopurinol, 4-hydroxypyrazolo[3,4-d]-pyrimidine-4-one]
[5]
  Ki: 67 µM
[8]
  TbNT11.1-mediated uptake of radiolabeled substrate: promoted uptake

## Nc1cc[nH]c(=O)n1 [cytosine]
[5]
  Inhibition of hypoxanthine uptake by pyrimidine nucleobases: did not inhibit

## Nc1nc2nc[nH]c2c(=O)[nH]1 [guanine]
[3]; Xenopus oocytes
  Transport by TbNT12.1 (in words): did not mediate the uptake
[5]
  Inhibition of [3H]hypoxanthine uptake by TbNT11.1 (in words): an inhibitor
[7]
  Transport by TbNT12.2 (in words): did not mediate the uptake
[8]
  TbNT11.1-mediated uptake of radiolabeled substrate: not a substrate
[9]
  Inhibition of [14C]pentamidine uptake by PFs: did not inhibit

## Nc1nc2c(ncn2[C@@H]2O[C@H](CO)[C@@H](O)[C@H]2O)c(=O)[nH]1 [guanosine]
[5]
  Inhibition of [3H]hypoxanthine uptake by nucleosides: failure

## O=c1[nH]cnc2nc[nH]c12 [hypoxanthine]
[3]; Xenopus oocytes
  Transport by TbNT12.1 (in words): did not mediate the uptake
[6]; 50 μM [14C]pentamidine
  Inhibition of [14C]pentamidine uptake by unlabeled nucleobase: partially inhibited
[7]
  Transport by TbNT12.2 (in words): did not mediate the uptake
[8]
  TbNT11.1-mediated uptake of radiolabeled substrate: mediated uptake
[9]
  Inhibition of [14C]pentamidine uptake by PFs: did not inhibit

## O=c1[nH]cnc2c1ncn2[C@@H]1O[C@H](CO)[C@@H](O)[C@H]1O [inosine]
[5]
  Inhibition of [3H]hypoxanthine uptake by nucleosides: failure

## Nc1nc(N)nc(Nc2ccc([As]3SCC(CO)S3)cc2)n1 (centres unmarked) [melarsoprol]
[11]
  Melarsoprol uptake over background of water injected oocytes: no uptake
[12]
  EC50: 12.9 µM

## N=C(N)c1ccc(OCCCCCOc2ccc(C(=N)N)cc2)cc1 [pentamidine]
[12]
  EC50: 9.6 µM
[3]; Xenopus oocytes, n=3
  Vmax for pentamidine uptake by TbNT12.1: 21.8 ± 6.5 pmol/h/oocyte
[3]; Xenopus oocytes
  Transport by TbNT12.1 (in words): also transport
[5]
  EC50: 4.8 µM
[13]
  Inhibition of hypoxanthine transport by TbNT8.1: did not significantly inhibit
[6]; 50 μM [14C]pentamidine, versus water injected oocytes
  Uptake of [14C]pentamidine by TbNT11.1 cRNA-injected oocytes: much more rapidly than control water injected oocytes
[6]; read-out: Km for pentamidine uptake by TbNT11.1, Xenopus oocytes, 1 h, n=3
  Km: 407 ± 119 µM
[7]
  Transport by TbNT12.2 (in words): also transport

## O=c1cc[nH]c(=O)[nH]1 [uracil]
[5]
  Inhibition of hypoxanthine uptake by pyrimidine nucleobases: did not inhibit

## O=c1[nH]c(=O)c2nc[nH]c2[nH]1 [xanthine]
[3]; Xenopus oocytes
  Transport by TbNT12.1 (in words): did not mediate the uptake
[6]; 50 μM [14C]pentamidine
  Inhibition of [14C]pentamidine uptake by unlabeled nucleobase: partially inhibited
[7]
  Transport by TbNT12.2 (in words): did not mediate the uptake
[8]
  TbNT11.1-mediated uptake of radiolabeled substrate: mediated uptake
[8]; read-out: Km for uptake by TbNT11.1, substrate saturation, 1 min, Δlmant3[pTbNT11.1], n=3
  Km: 7.2 ± 2.3 µM

## OC[C@H]1O[C@@H](n2cnc3c(O)nc(O)nc32)[C@H](O)[C@@H]1O [xanthosine]
[5]
  Inhibition of [3H]hypoxanthine uptake by nucleosides: failure

## TbNT11.1 (Trypanosoma brucei brucei TREU927)
[14]
  Km: 141 µM

B1: TbNT12.1 (Trypanosoma brucei brucei TREU927) (protein)
chain: T1 sequence (Q57TQ7 1-462)
[15]
  Km: 161 ± 8 µM
